Results published in patent US20150291565A1, “INDOLE COMPOUNDS AND THEIR USE AS ANTIMICROBIALS” (Memorial Sloan-Kettering Cancer Center, priority 2012, published 2015).
Where two headings read alike, the source gives them in different places.

Assays:
K. pneumoniae ATCC 13883 = test: Broth dilution MIC, K. pneumoniae ATCC 13883; type: cell-based; details: Klebsiella pneumoniae
C. albicans ATCC 14053 = test: Broth dilution MIC, C. albicans ATCC 14053; type: cell-based; details: Candida albicans, ATCC14053; Table 1; range 64 down to 0.12 μg/ml
Protocol: In vitro Anti-bacterial & Anti-fungal Activity Assay: All test compounds were prepared as 6.4 mg/ml stock solutions in DMSO and further diluted according to the NCCLS M7-A6 (Page 5) document with sterile water or appropriate diluent. A working stock of 256 μg/ml was used to do 1:2 serial dilutions in 96-well plates. […] The inoculums were prepared by making a direct sterile water suspension of isolated colonies from 18 to 24 hr agar plates for all organisms (Mueller Hinton, Blood Agar or SDA plates). Each bacterial suspension was adjusted to read between 0.09 and 0.11 absorbance at 620 nm. […] These were further diluted 1/100 in appropriate broth for inoculating the 96-well plates. The C. albicans suspension was adjusted to read between 70 and 75% Transmittance at 530 nm and then diluted 1/500 in RPMI+MOPS broth. All aerobic bacterial and fungal plates were incubated for 18 hrs. at 35° C. […] Plates were read using a Beckman Automated Plate Reader at 650 nm. Readings were confirmed by visual examination of plates. (See Table 1, Table 2, Table 3, and Table 4). […] It is important to note that positive results against C. albicans are often indicative of broad spectrum antifungal activity, while negative results are not necessarily conclusory of a lack of activity against other fungus.

[1] = tested on: S. aureus ATCC 33591 (MRSA); test: Broth dilution MIC, S. aureus ATCC 33591; type: cell-based; details: Staphylococcus aureus
E. coli ECM 1694 = test: Broth dilution MIC, E. coli ECM 1694; type: cell-based; details: Escherichia coli
[2] = tested on: S. pneumoniae ATCC 6301 (PSSP); test: Broth dilution MIC, S. pneumoniae ATCC 6301; type: cell-based; details: Streptococcus pneumoniae
E. faecium CT-26 = test: Broth dilution MIC, E. faecium CT-26; type: cell-based; details: Enterococcus faecium
[3] = tested on: E. faecalis ATCC 29212 (VRE); test: Broth dilution MIC, E. faecalis ATCC 29212; type: cell-based
M. smegmatis (mc2155) = test: Disk diffusion assay, zone of inhibition, M. smegmatis; type: cell-based; details: disk diffusion zone of inhibition
P. aeruginosa ATCC 9027 = test: Broth dilution MIC, P. aeruginosa ATCC 9027; type: cell-based; details: Pseudomonas aeruginosa
E. coli ATCC 25922 = test: Broth dilution MIC, E. coli ATCC 25922; type: cell-based; details: Escherichia coli
[4] = tested on: E. faecium ATCC 700221 (VRE); test: Broth dilution MIC, E. faecium ATCC 700221; type: cell-based
S. aureus BAA-39 (MDR) = test: Broth dilution MIC, S. aureus BAA-39; type: cell-based; details: Staphylococcus aureus, BAA39
[5] = tested on: S. pneumoniae ATCC 700674 (PRSP); test: Broth dilution MIC, S. pneumoniae ATCC 700674; type: cell-based; details: Streptococcus pneumoniae
[6] = tested on: S. aureus ATCC 29213 (MSSA); test: Broth dilution MIC, S. aureus ATCC 29213; type: cell-based; details: Staphylococcus aureus
MRSA = test: Disk diffusion assay, zone of inhibition, MRSA; type: cell-based, Staphylococcus aureus; details: disk diffusion zone of inhibition
K. pneumoniae ATCC 51503 = test: Broth dilution MIC, K. pneumoniae ATCC 51503; type: cell-based; details: Klebsiella pneumoniae
E. coli (ATCC 25922) = test: Septicemia survival model in neutropenic CD1 mice, E. coli; type: in vivo; details: 10 mg/kg BID SC

CN1CCC(Nc2ccc(-c3cc4ccc(C5=NCCN5)cc4[nH]3)cc2)CC1 [SKI-7]
0.25 µg/mL: MIC (E. coli ECM 1694; ECM1694, Table 1, range 64 down to 0.12 μg/ml, read-out: MIC E. coli ECM 1694) | MIC (E. coli ECM 1694; ECM1694, Table 2, broth dilution MIC in ug/ml, read-out: MIC E. coli ECM 1693)
30 mm: Zone Size M. smegmatis (M. smegmatis (mc2155))
> 64 µg/mL: MIC (K. pneumoniae ATCC 13883; ATCC13883, Table 1, range 64 down to 0.12 μg/ml, read-out: MIC K. pneumoniae ATCC 13883) | MIC (P. aeruginosa ATCC 9027; ATCC9027, Table 1, range 64 down to 0.12 μg/ml, read-out: MIC P. aeruginosa ATCC 9027) | MIC (K. pneumoniae ATCC 51503; ATCC51503, Table 1, range 64 down to 0.12 μg/ml, read-out: MIC K. pneumoniae ATCC 51503)
16 µg/mL: MIC (E. faecium CT-26; CT26, Table 1, range 64 down to 0.12 μg/ml, read-out: MIC E. faecium CT-26) | MIC (E. faecium CT-26; CT26, Table 2, broth dilution MIC in ug/ml, read-out: MIC E faecium CT-25) | MIC ([3]; Enterococcus faecalis, Table 1, range 64 down to 0.12 μg/ml, read-out: MIC E. faecalis ATCC 29212) | MIC ([3]; Table 2, broth dilution MIC in ug/ml, read-out: MIC E faecalis ATCC 29212 VRE) | MIC ([4]; Enterococcus faecium, Table 1, range 64 down to 0.12 μg/ml, read-out: MIC E. faecium ATCC 700221) | MIC ([4]; Table 2, broth dilution MIC in ug/ml, read-out: MIC E faecium ATCC 700221 VRE)
64 µg/mL: MIC (K. pneumoniae ATCC 13883; ATCC13883, Table 2, broth dilution MIC in ug/ml, read-out: MIC K pneumonia ATCC 13883) | MIC (P. aeruginosa ATCC 9027; ATCC 9026 / ATCC 9027, Table 2, broth dilution MIC in ug/ml, read-out: MIC P aeruginosa ATCC 9026) | MIC (K. pneumoniae ATCC 51503; ATCC51503, Table 2, broth dilution MIC in ug/ml, read-out: MIC K pneumonia ATCC 51503)
2 µg/mL: MIC ([1]; Table 1, range 64 down to 0.12 μg/ml, read-out: MIC S. aureus ATCC 33591) | MIC ([1]; Table 2, broth dilution MIC in ug/ml, read-out: MIC S aureus ATCC 33591 MRSA) | MIC (E. coli ATCC 25922; ATCC 25921 / ATCC 25922, Table 2, broth dilution MIC in ug/ml, read-out: MIC E. coli ATCC 25921) | MIC (E. coli ATCC 25922; ATCC25922, Table 1, range 64 down to 0.12 μg/ml, read-out: MIC E. coli ATCC 25922) | MIC (S. aureus BAA-39 (MDR); Table 1, range 64 down to 0.12 μg/ml, read-out: MIC S. aureus BAA-39) | MIC (S. aureus BAA-39 (MDR); Table 2, broth dilution MIC in ug/ml, read-out: MIC S aureus BAA-39 MDR) | MIC ([6]; Table 1, range 64 down to 0.12 μg/ml, read-out: MIC S. aureus ATCC 29213) | MIC ([6]; Table 2, broth dilution MIC in ug/ml, read-out: MIC S aureus ATCC 29213 MSSA)
32 µg/mL: MIC (C. albicans ATCC 14053) | MIC ([5]; Table 1, range 64 down to 0.12 μg/ml, read-out: MIC S. pneumoniae ATCC 700674) | MIC ([5]; Table 2, broth dilution MIC in ug/ml, read-out: MIC S pneumonia ATCC 700674 PRSP)
4 µg/mL: MIC ([2]; ATCC6301, Table 1, range 64 down to 0.12 μg/ml, read-out: MIC S. pneumoniae ATCC 6301) | MIC ([2]; ATCC6301, Table 2, broth dilution MIC in ug/ml, read-out: MIC S pneumonia ATCC 6301 PSSP)
19 mm: Zone Size MRSA (MRSA)

Gentamicin [reference compound]
60%: Percent Survival Day 4 (E. coli (ATCC 25922)) | Percent Survival Day 5 (E. coli (ATCC 25922)) | Percent Survival Day 6 (E. coli (ATCC 25922)) | Percent Survival Day 7 (E. coli (ATCC 25922))
100%: Percent Survival Day 1 (E. coli (ATCC 25922)) | Percent Survival Day 2 (E. coli (ATCC 25922))
80%: Percent Survival Day 3 (E. coli (ATCC 25922))
